Experimental data taken from patent US20090298752A1, “APLIDINE TREATMENT OF CANCERS” (PHARMA MAR, S.A., priority 1999, published 2009).
Entries after “also recorded” stand apart in the source; their conditions may differ.

Experiments:
Gastric MRI-H254 = assay: sc hollow fibre (HF), gastric tumour cells, rat; assay type: in vivo; conditions: 24 hr.iv inf., 0.7 mg/kg
Method: Different model systems were evaluated to provide the basis for further clinical work. Selective antitumour activities were seen against two histologically different solid tumours: human gastric and prostate carcinomas. Potent in vitro activity to primary gastric tumour specimens or Hs746T gastric tumour cells is evident with IC30 values of 146 and 450 pM, respectively. […] activities were evaluated in nude rodents using sc implanted tumour fragments or hollow fibres (HF) containing tumour cells.
Follow-up studies necessitated using rats for iv infusions. With this variation, a 24 hr iv infusion schedule produced similar activities against HF gastric (20%) and HF prostate (31%) tumour cells. Cytotoxicity was also found using a 5 day iv infusion schedule against HF prostate tumour cells (33%).

VEGF mRNA = VEGF mRNA in MOLT-4 cells (Rnase protection); assay type: cell-based, human
VEGF promoter = VEGF promoter luciferase reporter in MOLT-4 cells; assay type: cell-based, human; conditions: luciferase after 24 hours vs renilla
Method: Cells were transfected with the VEGF promoter (spanning the first 1000 bases upstream the starting site linked to luciferase reporter gene and with a control plasmid containing the renilla reporter gene. Cells were then treated with different concentrations of aplidine and luciferase activity was measured after 24 hours and compared to renilla activity.

cardiac H9 c2 (2-1) = assay: CellTiter96 (MTS) in vitro cytotoxicity assay; assay type: cell-based
From the text: (§1) In fact, the dose limiting toxicity in humans is skeletal muscle atrophy.

kidney (NRK-52E) cells = assay: CellTiter96 (MTS) in vitro cytotoxicity assay; assay type: cell-based
From the text: as §1

liver (AML-12) = assay: CellTiter96 (MTS) in vitro cytotoxicity assay; assay type: cell-based
From the text: as §1

[1] = tested on: myelogenous stem cells (FDC-P1); assay: CellTiter96 (MTS) in vitro cytotoxicity assay; assay type: cell-based
From the text: as §1

skeletal muscle (L8) = assay: CellTiter96 (MTS) in vitro cytotoxicity assay; assay type: cell-based
From the text: as §1

[2] = tested on: solid tumours and non-Hodgkin lymphoma; assay: Phase I, 24 h infusion every 2 weeks: antitumour activity; assay type: in vivo, human
Method: Aplidine is given as a 24 hour infusion every 2 weeks. The starting dose was 200 μg/m^2/d and dose escalation proceed including so far 400, 800, 1600, and 3200 μg/m^2/d. A total of 18 patients (M/F: 7/11, median age 52, OMS 0/1:10/8) have been entered. […] Among evaluable patients, toxicity consisted of mild grade I-II nausea/vomiting, grade I-II asthenia, and cramping occurring during or immediately after the infusion. No neuromuscular toxicity were reported at the evaluated doses. One patient with an advanced lung cancer and documented tumour progression at the dose of 1600 μg/m^2 developed a haemolytic anaemia and thrombocytopenia that was considered unlikely related to the study drug. […] An open 2-compartment model fits appropriately most plasma concentration profiles. […] The accrual is ongoing to determine the dose limiting toxicity and the dose to be recommended in phase II studies.
Aplidine was given to patients with solid tumour/NHL as a 24 hr infusion/q2w to 35 patients (median: age=51/ECOG=1) with solid tumour (32 pts) or NHL (3 pts). 23/35 patients were previously exposed to ≧3 previous lines of chemotherapy. Nine dose levels (200-7000 μg/m^2/w/q2w) and 65 cycles (120 infusions) were given. […] Toxicity consisted of G2-3 asthenia and emesis in 9-2 patients and 12-1 pts, respectively. G3 nausea/vomiting (≧5000 μg/m^2) was efficiently treated then prevented with 4HT3-regimens. […] At the dose of 5000 μg/m^2/w/q2w, 2 patients experienced transient muscle cramps with reversible G3 CPK-MM elevations. Among 9 patients treated at 6000 μg/m^2/w, 3 patients experienced an increase of CPK-MM and aldolase after the 3rd injection of aplidine. CPK elevations were G1-2 and not symptomatic in 2 patients but a G3 CPK elevation with G3 muscular pain and loss of muscle strength (DLT) was reported in 1 pt. This was reversible with no sequel. […] Ultrastructural electron microscopy indicated no morphological mitochondria alteration but a lost of the thick myosin filaments. At 7000 μg/m^2/q2w, 4 patients have been entered. […] Mechanistic hypothesis and preventive strategies against muscle toxicity are under evaluation.

P388 leukaemia = conditions: mice; cited from earlier work

## aplidine
Gastric MRI-H254
  Activity (% T/C.): 20 % T/C
VEGF mRNA
  half life of VEGF mRNA, in words: does not change the half life of VEGF mRNA
VEGF mRNA; 20 nM aplidine
  levels of VEGF mRNA, in words: strong decrease; also recorded: decrease in the mRNA encoding for VEGF
VEGF promoter
  activity of transfected VEGF promoter, in words: dose not decrease the activity of VEGF promoter; also recorded: did not decrease the transcription of VEGF
Cardiac H9 c2 (2-1)
  LD50: 1 µM
Kidney (NRK-52E) cells
  LD50: 0.1 nM
Liver (AML-12)
  LD50: 1 µM
[1]
  LD50: 0.1 µM
Skeletal muscle (L8)
  LD50: 0.1 nM
[2]; Example 6
  response, patient with non-Hodgkin lymphoma: Clinical improvement
[2]; Example 14
  Activity observed in NHL: 1/3
  Activity observed in molecular thyroid: 2/2
  Activity observed in neuroendocrine cancer: 1 pt
  Activity observed in renal: 1/5
[2]; Example 18
  antitumour activity in NHL and renal carcinoma: Antitumour activity has been also noted
P388 leukaemia
  activity against implanted tumour: active
